Calls of active or inactive are those of the source.
Assays:
Beta-lactamase [1] = target: Beta-lactamase (Pseudomonas aeruginosa, UniProt Q79MP6);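 note: biochemical dose-response test of metallo-beta-lactamase enzyme inhibition, read out by epi-absorbance; purified recombinant IMP-1 metallo-beta-lactamase with nitrocefin as substrate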
[2] = target: Dual specificity tyrosine-phosphorylation-regulated kinase 1A (Rattus norvegicus, UniProt Q63470); assay type: biochemical, Homo sapiens
[3] = target: UDP-galactopyranose mutase (Mycobacterium tuberculosis, UniProt P9WIQ1); experiment: Inhibitors of Mycobacterium tuberculosis UDP-galactopyranose mutase (UGM) enzyme Measured in Biochemical System Using Plate Reader - 2105-02_Inhibitor_Dose_CherryPick_Activity. [Related pubchem assays (depositor defined):AID504439]
HEK293 = experiment: optical interference in Abeta FP readout, dose response, artefact control for IDE activator project, biochemical, fluorescence polarization (AID 588442); assay type: functional, cell-based; conditions: Homo sapiens
Beta-lactamase [4] = target: Beta-lactamase (Salmonella choleraesuis (strain SC-B67), UniProt Q5J463)
[5] = NIH-3T3 fibroblast cytotoxicity, dose response, cytotoxicity control, cell-based, fluorescence, Alamar Blue, secondary assay (AID 2327); assay type: functional;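 note: NIH-3T3 mouse fibroblasts cultured with fluconazole at 8 µg/mL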
Cysteine protease ATG4B = target: T1, Cysteine protease ATG4B (Homo sapiens, UniProt Q9Y4P1); experiment: ATG4B protease inhibitors, dose response, biochemical, fluorescence, set 2 (AID 588584); assay type: functional
T1 sequence (Q9Y4P1 whole entry): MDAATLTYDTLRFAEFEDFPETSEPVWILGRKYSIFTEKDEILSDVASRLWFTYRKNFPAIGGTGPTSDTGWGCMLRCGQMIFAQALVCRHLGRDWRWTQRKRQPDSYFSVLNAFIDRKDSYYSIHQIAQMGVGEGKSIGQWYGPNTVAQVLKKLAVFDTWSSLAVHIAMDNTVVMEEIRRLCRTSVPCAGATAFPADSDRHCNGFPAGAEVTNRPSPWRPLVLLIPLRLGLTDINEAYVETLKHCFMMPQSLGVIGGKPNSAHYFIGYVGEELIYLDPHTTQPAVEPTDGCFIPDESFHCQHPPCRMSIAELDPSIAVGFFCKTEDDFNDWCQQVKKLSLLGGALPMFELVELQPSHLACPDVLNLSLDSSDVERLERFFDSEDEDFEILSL

INS1 = experiment: beta cell apoptosis inhibitors, cytokine rescue, dose response, luminescence, retest (AID 449756); assay type: functional, cell-based; conditions: Rattus norvegicus;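 note: cell death triggered by IL-1 beta plus TNF-alpha plus IFN-gamma mixture; protective hits raise ATP signal compared with cytokine alone wells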
[6] = cytotoxicity toward NIH3T3 fibroblasts, dose response, counter-screen, cell-based, ATP luminescence, mouse fibroblasts (AID 2010); assay type: functional;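 note: cells exposed to compound for about 90 hours before reading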
[7] = HEK293T cytotoxicity, dose response, cytotoxicity control for miR-122 modulator project, cell-based, activator set, cherry-pick (AID 720690); assay type: functional;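 note: HEK293T human cells scored for general mammalian cytotoxicity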
Phospholipase A2 = Phospholipase A2 (Homo sapiens, UniProt P04054); assay type: functional;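 note: confirmatory dose-response counterscreen on phospholipase A2, testing hits that came from an ultra-high-throughput screen for ATG4B inhibitors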
[8] = cytotoxicity in HEK-293T cells, dose response, cytotoxicity control for TCR NF-kB inhibitor project, luminescence, T-cell screen hits (AID 489026); assay type: functional, cell-based;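 note: cells exposed to compound about 14 hours before the viability readout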
[9] = Luminescence Cell-Based Dose Response HTS to Identify Inhibitors of 5'UTR Stem-Loop Driven Prion Protein mRNA Translation in H4 Neuroglioblastoma Cells. [Related pubchem assays: 1827 (Project Summary), 1813 (Primary HTS)]; assay type: functional
[10] = target: T2, Serine/threonine-protein phosphatase (Candida dubliniensis (strain CD36 / CBS 7987 / NCPF 3949 / NRRLY-17841) (Yeast), UniProt B9W6M3); experiment: calcineurin pathway inhibitors in yeast reporter, dose response, S. cerevisiae, CDRE-lacZ, luminescence, secondary (AID 2388); assay type: functional, cell-based;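 note: yeast reporter cells carrying a calcineurin-responsive lacZ construct stimulated with calcium chloride; luminescent beta-galactosidase reporter signal in whole cells rather than isolated phosphatase activity; potency for inhibition where a drop in reporter signal means calcineurin blockade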
T2 sequence (B9W6M3 whole entry): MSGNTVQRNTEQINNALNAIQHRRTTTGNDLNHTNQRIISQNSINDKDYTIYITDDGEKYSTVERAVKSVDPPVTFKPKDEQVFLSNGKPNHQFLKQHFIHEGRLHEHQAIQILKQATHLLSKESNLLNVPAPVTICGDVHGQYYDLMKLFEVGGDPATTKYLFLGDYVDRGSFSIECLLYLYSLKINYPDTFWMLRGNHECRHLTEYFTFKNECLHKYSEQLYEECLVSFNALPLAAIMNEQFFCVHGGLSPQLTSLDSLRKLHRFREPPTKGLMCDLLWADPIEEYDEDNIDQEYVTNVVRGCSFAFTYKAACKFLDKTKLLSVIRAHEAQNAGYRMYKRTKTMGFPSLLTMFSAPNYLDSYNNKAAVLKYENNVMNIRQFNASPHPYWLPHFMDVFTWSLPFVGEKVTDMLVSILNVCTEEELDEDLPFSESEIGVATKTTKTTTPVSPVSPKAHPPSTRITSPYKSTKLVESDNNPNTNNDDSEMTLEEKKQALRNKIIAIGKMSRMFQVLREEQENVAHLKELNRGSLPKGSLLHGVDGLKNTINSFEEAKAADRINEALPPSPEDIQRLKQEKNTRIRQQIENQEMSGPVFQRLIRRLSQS

Troponin, cardiac muscle = Troponin, cardiac muscle (Homo sapiens, UniProt P19429+P45379+P63316); experiment: inhibitors of cardiac thin filament calcium sensitivity, dose response, biochemical, fluorescence, cardiac regulated thin filaments, triplicate IC50 (AID 504742); assay type: protein-complex assay
Large T antigen = Large T antigen (Simian virus 40, UniProt P03070); assay type: functional, Betapolyomavirus macacae;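 note: Confirmatory-stage PubChem screen for compounds that inhibit SV40 T antigen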
[11] = target: Eukaryotic translation initiation factor 4E (Mus musculus, UniProt P63073); experiment: eIF4E–eIF4G protein interaction inhibitors, dose response, biochemical, TR-FRET (AID 855); assay type: functional;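 note: potency for disrupting eIF4E binding to eIF4GI seen as loss of FRET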
Ephrin type-A receptor 4 = Ephrin type-A receptor 4 (Mus musculus, UniProt Q03137); experiment: inhibitors of EphA4 binding to KYL peptide, primary screen, biochemical, colorimetric, mouse EphA4 (AID 689); assay type: functional
Chain of Ephrin type-A receptor 4 (Q03137 whole entry): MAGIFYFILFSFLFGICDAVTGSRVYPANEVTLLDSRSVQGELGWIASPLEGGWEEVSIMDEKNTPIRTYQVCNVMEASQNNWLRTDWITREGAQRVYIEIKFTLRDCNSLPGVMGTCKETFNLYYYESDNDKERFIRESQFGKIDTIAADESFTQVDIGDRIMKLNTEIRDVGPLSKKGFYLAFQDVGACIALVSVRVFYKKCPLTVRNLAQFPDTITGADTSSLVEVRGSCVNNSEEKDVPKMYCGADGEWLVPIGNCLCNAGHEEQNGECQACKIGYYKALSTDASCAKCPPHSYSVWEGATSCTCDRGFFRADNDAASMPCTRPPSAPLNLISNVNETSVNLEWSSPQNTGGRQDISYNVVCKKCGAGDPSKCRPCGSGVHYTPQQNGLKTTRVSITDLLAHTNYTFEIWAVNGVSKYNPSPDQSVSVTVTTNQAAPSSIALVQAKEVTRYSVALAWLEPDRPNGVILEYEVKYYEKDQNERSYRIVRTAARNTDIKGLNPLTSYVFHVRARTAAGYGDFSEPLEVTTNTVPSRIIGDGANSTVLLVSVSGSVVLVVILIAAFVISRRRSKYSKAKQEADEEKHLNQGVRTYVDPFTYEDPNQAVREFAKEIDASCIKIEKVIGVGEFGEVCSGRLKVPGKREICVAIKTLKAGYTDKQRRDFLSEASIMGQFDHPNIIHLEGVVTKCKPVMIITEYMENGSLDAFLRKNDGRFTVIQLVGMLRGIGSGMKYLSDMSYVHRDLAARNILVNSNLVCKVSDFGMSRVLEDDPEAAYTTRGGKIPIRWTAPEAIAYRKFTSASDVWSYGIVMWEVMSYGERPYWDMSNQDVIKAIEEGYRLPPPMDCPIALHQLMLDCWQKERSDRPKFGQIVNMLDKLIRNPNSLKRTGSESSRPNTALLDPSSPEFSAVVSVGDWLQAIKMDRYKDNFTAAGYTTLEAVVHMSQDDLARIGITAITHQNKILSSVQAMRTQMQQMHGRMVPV

Chain of Beta-lactamase (Salmonella choleraesuis (strain SC-B67), UniProt Q5J463) (Q5J463 whole entry): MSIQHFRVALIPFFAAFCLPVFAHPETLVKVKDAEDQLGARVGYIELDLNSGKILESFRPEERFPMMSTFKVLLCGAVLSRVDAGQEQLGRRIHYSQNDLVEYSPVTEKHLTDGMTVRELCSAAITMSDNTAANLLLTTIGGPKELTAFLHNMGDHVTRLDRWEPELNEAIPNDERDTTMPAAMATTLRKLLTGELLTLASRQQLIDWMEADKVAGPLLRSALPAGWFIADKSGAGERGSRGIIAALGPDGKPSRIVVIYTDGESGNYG
Chain of UDP-galactopyranose mutase (P9WIQ1 whole entry): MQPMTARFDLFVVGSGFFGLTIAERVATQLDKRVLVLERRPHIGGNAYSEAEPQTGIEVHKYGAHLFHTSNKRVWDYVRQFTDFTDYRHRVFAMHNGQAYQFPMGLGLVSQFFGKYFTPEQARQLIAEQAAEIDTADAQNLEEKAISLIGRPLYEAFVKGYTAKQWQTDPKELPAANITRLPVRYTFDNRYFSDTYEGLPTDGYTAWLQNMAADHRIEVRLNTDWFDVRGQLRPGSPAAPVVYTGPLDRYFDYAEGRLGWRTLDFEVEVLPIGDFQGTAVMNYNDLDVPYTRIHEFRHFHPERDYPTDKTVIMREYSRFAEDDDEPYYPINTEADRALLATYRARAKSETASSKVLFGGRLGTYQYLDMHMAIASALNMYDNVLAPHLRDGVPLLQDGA
Chain of Beta-lactamase (Pseudomonas aeruginosa, UniProt Q79MP6) (Q79MP6 whole entry): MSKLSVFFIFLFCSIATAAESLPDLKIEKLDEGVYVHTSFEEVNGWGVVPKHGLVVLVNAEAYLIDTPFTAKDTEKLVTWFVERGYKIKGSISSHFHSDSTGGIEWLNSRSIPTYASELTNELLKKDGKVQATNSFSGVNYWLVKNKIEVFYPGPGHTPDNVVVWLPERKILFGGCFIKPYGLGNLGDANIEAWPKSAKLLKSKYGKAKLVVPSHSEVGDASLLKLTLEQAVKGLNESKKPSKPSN
Chain of Eukaryotic translation initiation factor 4E (P63073 whole entry): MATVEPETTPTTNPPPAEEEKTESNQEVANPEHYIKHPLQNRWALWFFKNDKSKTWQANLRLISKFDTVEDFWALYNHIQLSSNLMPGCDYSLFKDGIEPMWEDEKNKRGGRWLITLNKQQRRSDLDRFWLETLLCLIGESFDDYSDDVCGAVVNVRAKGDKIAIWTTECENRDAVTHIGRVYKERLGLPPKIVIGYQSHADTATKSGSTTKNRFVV
Chain of Phospholipase A2 (P04054 whole entry): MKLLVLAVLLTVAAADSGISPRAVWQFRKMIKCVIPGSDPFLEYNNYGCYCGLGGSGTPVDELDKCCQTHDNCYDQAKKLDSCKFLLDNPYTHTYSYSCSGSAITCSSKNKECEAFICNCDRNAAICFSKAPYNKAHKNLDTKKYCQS
Chain of Large T antigen (P03070 whole entry): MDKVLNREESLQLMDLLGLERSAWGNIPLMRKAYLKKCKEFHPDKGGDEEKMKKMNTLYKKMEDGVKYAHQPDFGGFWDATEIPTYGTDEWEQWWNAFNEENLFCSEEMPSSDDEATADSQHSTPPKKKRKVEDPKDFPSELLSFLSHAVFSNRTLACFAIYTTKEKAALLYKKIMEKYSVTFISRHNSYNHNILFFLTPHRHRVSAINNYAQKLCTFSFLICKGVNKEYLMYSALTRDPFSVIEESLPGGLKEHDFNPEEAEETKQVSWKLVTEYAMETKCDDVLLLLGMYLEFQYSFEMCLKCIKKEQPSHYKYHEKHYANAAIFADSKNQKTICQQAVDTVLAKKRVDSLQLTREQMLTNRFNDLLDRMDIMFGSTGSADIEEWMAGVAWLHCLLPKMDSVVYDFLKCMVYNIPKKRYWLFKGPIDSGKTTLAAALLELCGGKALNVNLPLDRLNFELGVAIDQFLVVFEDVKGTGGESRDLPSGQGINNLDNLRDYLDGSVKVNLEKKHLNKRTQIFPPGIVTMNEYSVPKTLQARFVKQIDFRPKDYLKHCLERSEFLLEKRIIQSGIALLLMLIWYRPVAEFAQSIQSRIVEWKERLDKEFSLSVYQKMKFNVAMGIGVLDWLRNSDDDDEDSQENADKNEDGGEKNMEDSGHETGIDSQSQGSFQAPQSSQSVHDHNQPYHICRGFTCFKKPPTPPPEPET

## O=C1CCN2C=Nc3cccc4ccc1c2c34
Beta-lactamase [1]
  IC50: 11.8 µM (inactive)
[2]
  AC50: 3 µM (active)
[3]
  AC50: 2.33 µM (active)
HEK293
  EC50: 17 µM (inactive)
Beta-lactamase [4]
  IC50: 7.55 µM (active)

## Oc1ccc2ccccc2c1/C=N/Nc1nnc(-c2ncc[nH]2)c2ccccc12
[5]
  EC50: 11.4 µM (active)
Cysteine protease ATG4B
  IC50: 5.4 µM (active)
INS1
  AC50: 0.424 µM (active)
[6]
  EC50: < 6 µM (inconclusive)
[7]
  AC50: 3.09 µM (active)
Phospholipase A2
  IC50: 1.51 µM (active)
[8]
  IC50: > 80 µM (inactive)
[9]
  EC50: 0.292 µM (active)
[10]
  EC50: > 180 µM (inactive)

## CC(C)C(C(=O)O)N1C(=O)/C(=C/C=C/c2ccco2)SC1=S (stereo not drawn)
Troponin, cardiac muscle
  IC50: 22.4 µM (inactive)
Large T antigen
  IC50: 24.6 µM (active)
[11]
  IC50: 11.3 µM (active)
Ephrin type-A receptor 4
  IC50: 5.26 µM (active)

Source: ChEMBL document CHEMBL1201862, “PubChem BioAssay data set” (2004)
